Assays:
Assay in all cases: selective drug sensitivity score (sDSS, relative to normal bone marrow) (sDSS (score)); higher = more potent and effective on the cell line relative to normal bone marrow cells
Conditions in all cases: 72 h
380 = test system: 380
697 = test system: 697
ALL-PO = test system: ALL-PO
ALL-SIL = test system: ALL-SIL
CCRF-CEM = test system: CCRF-CEM
COG-LL-317 = test system: COG-LL-317
COG-LL-332h = test system: COG-LL-332h
COG-LL-394h = test system: COG-LL-394h
COG-LL-402h = test system: COG-LL-402h
DND-41 = test system: DND-41
JURKAT = test system: JURKAT
KASUMI-10 = test system: KASUMI-10
KASUMI-2 = test system: KASUMI-2
LC4-1 = test system: LC4-1
MHH-CALL-3 = test system: MHH-CALL-3
NALM-16 = test system: NALM-16
NALM-6 = test system: NALM-6
P12-ICHIKAWA = test system: P12-ICHIKAWA
RCH-ACV = test system: RCH-ACV
RPMI-8402 = test system: RPMI-8402
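Note: ALL cell lines in 384-well plates, five doses spanning 10,000-fold, each plate scaled between vehicle and 100 µmol/L benzalkonium chloride controls, sDSS an adapted area-under-curve metric.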

Structure (SMILES)	selective drug sensitivity score 380	selective drug sensitivity score 697	selective drug sensitivity score (ALL-PO)	selective drug sensitivity score (ALL-SIL)	selective drug sensitivity score (CCRF-CEM)	selective drug sensitivity score (COG-LL-317)	selective drug sensitivity score (COG-LL-332h)	selective drug sensitivity score (COG-LL-394h)	selective drug sensitivity score (COG-LL-402h)	selective drug sensitivity score (DND-41)	selective drug sensitivity score (JURKAT)	selective drug sensitivity score (KASUMI-10)	selective drug sensitivity score (KASUMI-2)	selective drug sensitivity score (LC4-1)	selective drug sensitivity score (MHH-CALL-3)	selective drug sensitivity score (NALM-16)	selective drug sensitivity score (NALM-6)	selective drug sensitivity score (P12-ICHIKAWA)	selective drug sensitivity score (RCH-ACV)	selective drug sensitivity score (RPMI-8402)
C[C@@H]1COCCN1c1cc(C2([S@](C)(=N)=O)CC2)nc(-c2cc[nH]c3nccc2-3)n1 [AZD6738] (top concentration 25000 nM)	19.5	11	4.58	8.88	10.8	16	8.08	-2.72	7.68	8.58	3.88	8.08	1.38	8.48	12.2	0.68	7.28	9.98	15.9	8.98
NC1(C(=O)N[C@@H](CCO)c2ccc(Cl)cc2)CCN(c2ncnc3[nH]ccc23)CC1 [AZD-5363] (top concentration 10000 nM)	8.82	5.32	5.82	3.52	9.32	8.82	4.02	-1.08	5.62	-1.88	6.72	1.62	7.32	1.22	6.72	0.12	7.12	3.52	10.9	3.52
C[C@@H](Nc1cc(F)cc(F)c1)c1cc(C(=O)N(C)C)cc2c(=O)cc(N3CCOCC3)oc12 [AZD-8186] (top concentration 1000 nM)	2.84	3.64	0.34	-0.26	-0.26	-0.26	-0.26	-0.26	5.14	-0.26	-0.26	-0.26	7.54	-0.26	3.84	-0.06	5.14	-0.26	14.9	0.44
COc1cccc2c1C(=O)c1c(O)c3c(c(O)c1C2=O)C[C@@](O)(/C(CO)=N/NC(=O)CCCCCN1C(=O)C=CC1=O)C[C@@H]3O[C@H]1C[C@H](N)[C@H](O)[C@H](C)O1 [Aldoxorubicin] (top concentration 1000 nM)	13.2	10.2	-2.06	0.74	7.24	14.8	12.1	8.24	14.3	1.84	1.64	9.24	8.54	6.34	14.1	-0.46	4.34	5.04	11.7	5.34
COc1cc(Nc2ncc3c(n2)-c2ccc(Cl)cc2C(c2c(F)cccc2OC)=NC3)ccc1C(=O)O [Alisertib] (top concentration 10000 nM)	26.4	25	15.6	17.2	21.5	29.6	24.8	2.28	16.1	0.88	11.3	14.6	18.5	25.5	12	0.28	20.1	22.6	24.3	10.2
Cc1nc(NC(=O)N2CCC[C@H]2C(N)=O)sc1-c1ccnc(C(C)(C)C(F)(F)F)c1 [Alpelisib] (top concentration 2500 nM)	3.18	1.08	3.28	6.28	0.48	-0.42	0.18	0.78	4.18	-0.82	-0.82	-0.12	1.98	0.98	-0.82	1.38	3.88	-0.32	8.98	-0.02
CCN(CC)CCNC(=O)c1c(C)[nH]c(/C=C2\C(=O)Nc3ccc(-c4csc(-c5ccccc5)n4)cc32)c1C [Amcasertib] (top concentration 10000 nM)	7.8	2.4	6.7	3.6	6.7	7.7	7.2	1.3	-3.2	6.8	-2.2	5.2	0.8	0.9	-3.2	-2.1	0	0	3.3	-1.5
COc1c(C)cnc(Cn2cnc3c(Cl)nc(N)nc32)c1C [BIIB021] (top concentration 10000 nM)	7.68	4.28	5.88	5.88	7.88	10.2	8.98	-4.02	5.78	8.58	0.48	8.78	3.88	0.98	9.58	2.38	7.88	2.28	9.58	0.68
O=C(/C=C/c1cccc(S(=O)(=O)Nc2ccccc2)c1)NO [Belinostat] (top concentration 10000 nM)	16.2	10.1	11.4	8.9	8.7	12.9	7.9	2.1	12.6	7.2	7.6	7.6	17.4	9.7	17.5	2.5	7.4	8.6	14.3	7.3
Nc1cc(C(F)(F)F)c(-c2cc(N3CCOCC3)nc(N3CCOCC3)n2)cn1 [Buparlisib] (top concentration 10000 nM)	7.18	7.38	9.58	8.28	5.28	1.08	3.58	0.38	5.58	-0.32	8.18	2.48	2.08	6.08	-1.22	3.98	4.78	3.28	13.3	6.88
CCS(=O)(=O)N1CCN(c2ccc(Nc3ncc(C(N)=O)c(NC4CC4)n3)cc2)CC1 [Cerdulatinib] (top concentration 10000 nM)	-11.9	-3.66	6.04	-0.76	-6.26	-7.66	-4.26	-8.56	-2.56	2.54	-8.66	0.24	-11.9	-9.46	-11.9	-11.4	1.44	-4.46	13.3	-5.56
CC(C)[C@H]1C(=O)N[C@@H](CCCNC(=N)N)C(=O)NCC(=O)N[C@@H](CC(=O)O)C(=O)N[C@H](Cc2ccccc2)C(=O)N1C [Cilengitide] (top concentration 10000 nM)	11.3	0	0	0	0	0	0	0	0	0	0	0	0	0	0	0	0	0	0	0
CC(C)(C)c1nc(-c2cccc(NS(=O)(=O)c3c(F)cccc3F)c2F)c(-c2ccnc(N)n2)s1 [Dabrafenib] (top concentration 2500 nM)	-1.52	11.5	-0.22	3.48	0.58	0.18	1.68	-0.22	0.48	-1.52	1.08	0.58	-1.52	6.48	-1.52	-1.52	-0.52	1.18	0.88	-1.12
C[C@H]1O[C@@H](O[C@H]2[C@@H](O)C[C@H](O[C@H]3[C@@H](O)C[C@H](O[C@H]4CC[C@@]5(C)[C@H](CC[C@@H]6[C@@H]5C[C@@H](O)[C@]5(C)[C@@H](C7=CC(=O)OC7)CC[C@]65O)C4)O[C@@H]3C)O[C@@H]2C)C[C@H](O)[C@@H]1O [Digoxin] (top concentration 1000 nM)	22.5	8.6	4	5.6	8.9	8.7	9.8	4.1	6.4	2.4	10	10	5.9	7.8	10.5	4.9	10.5	8.2	8.1	8.3
C[C@H](Nc1ncnc2nc[nH]c12)c1cc2cccc(Cl)c2c(=O)n1-c1ccccc1 [Duvelisib] (top concentration 500 nM)	1.46	2.16	0.86	-0.94	4.36	1.96	2.46	-0.84	4.96	-0.14	-0.94	-0.94	9.86	-0.94	-0.14	-0.94	4.36	-0.44	21	-0.94
NC(=O)/C(=C/n1cnc(-c2cc(C(F)(F)F)cc(C(F)(F)F)c2)n1)c1cncnc1 [Eltanexor] (top concentration 10000 nM)	13.6	13.2	11.4	10.3	9.66	14.7	9.46	4.66	12.1	12.6	9.76	2.36	16.8	8.16	22.3	-0.84	10.6	7.96	12.7	9.36
COC(=O)N[C@@H](C)CNc1nccc(-c2cn(C(C)C)nc2-c2cc(Cl)cc(NS(C)(=O)=O)c2F)n1 [Encorafenib] (top concentration 1000 nM)	0	8	0	0	0.2	0	0	0.2	0	0	1.7	0	0	2.9	0	0	3.5	1.7	1	0

Reference: the supplement of paper PMC8967900
